What was measured:
Type in all cases: in vivo
[1] = tested on: soybean (GLXMA; Glycine max, cv. Pioneer 35T58); experiment: Test M postemergence, mixtures of Cpd. No. 20 with isoxadifen-ethyl, cloquintocet-mexyl or Mefenpyr-diethyl; details: approx. 14 d
Description: (§1) This test evaluated the effect of mixtures of Cpd. No. 20 with isoxadifen-ethyl, or cloquintocet-mexyl, or Mefenpyr-diethyl on several plant species. Seeds of plant species selected from corn (ZEAMD; Zea mays, cv. ‘Pioneer 1184’), soybean (GLXMA; Glycine max, cv. Pioneer 35T58), winter wheat (TRZAW; Triticum aetivum, cv. Arezzo), winter barley (HORVW; Hordeum vulgare, cv. Boone), rice (ORYSS; Oryza sativa, cv. M202), and giant foxtail (SETFA; Setaria faberi) were planted in pots containing Redi-Earth® planting medium (Scotts Company, 14111 Scottslawn Road, Marysville, Ohio 43041) comprising spaghnum peat moss, vermiculite, wetting agent and starter nutrients and treated postemergence using test chemicals formulated in a non-phytotoxic solvent mixture which included a surfactant. Plants ranged in height from 7 to 10 cm and were in the one- to two-leaf stage for the postemergence treatment. Treated plants and untreated controls were maintained in a greenhouse for approximately 14 d, after which time all treated plants were compared to untreated controls and visually evaluated for injury. Plant response ratings, summarized in Tables M1 to M3, are based on a 0 to 100 scale where 0 is no effect and 100 is complete control. A dash (-) response means no test result. Test results are presented as a mean of 3 reps.

[2] = tested on: winter barley (HORVW; Hordeum vulgare, cv. Boone); experiment: as above; details: approx. 14 d
Description: as §1

[3] = tested on: giant foxtail (SETFA; Setaria faberi); experiment: as above; details: approx. 14 d
Description: as §1

[4] = tested on: winter wheat (TRZAW; Triticum aetivum, cv. Arezzo); experiment: as above; details: approx. 14 d
Description: as §1

[5] = tested on: chamomile (scentless chamomile, Matricaria inodora); experiment: Test D postemergence controlled growth environment test
Description: Seeds of plant species selected from blackgrass (Alopecurus myosuroides), galium (catchweed bedstraw, Galium aparine), kochia (Kochia scoparia), oilseed rape (Brassica napus), barley, spring (Hordeum vulgare), wheat, spring (Triticum aestivum), oat, wild (Avena fatua), barley, winter (Hordeum vulgare) and wheat, winter (Triticum aestivum) were planted into a silt loam soil and treated preemergence with test chemicals formulated in a non-phytotoxic solvent mixture which included a surfactant.
At the same time, plants selected from these crop and weed species and also bluegrass (annual bluegrass, Poa annua), canarygrass (littleseed canarygrass, Phalaris minor), chickweed (common chickweed, Stellaria media), bromegrass, downy (downy bromegrass, Bromus tectorum), field poppy (Papaver rhoeas), field violet (Viola arvensis), foxtail, green (Setaria viridis), deadnettle (henbit deadnettle, Lamium amplexicaule), ryegrass, Italian (Lolium multiflorum), lambsquarters (Chenopodium album), pigweed (Amaranthus retroflexus), chamomile (scentless chamomile, Matricaria inodora), Russian thistle (Salsola kali), speedwell (bird's-eye speedwell, Veronica persica), buckwheat, wild (Polygonum convolvulus), mustard, wild (Sinapis arvensis), radish, wild (Raphanus raphanistrum), windgrass (Apera spica-venti), geranium, cutleaf (Geranium dissectum) and Canada thistle (Cirsium arvense) were planted in pots containing Redi-Earth® planting medium (Scotts Company, 14111 Scottslawn Road, Marysville, Ohio 43041) comprising spaghnum peat moss, vermiculite, wetting agent and starter nutrients and treated with postemergence applications of the test chemicals formulated in the same manner. Plants ranged in height from 2 to 18 cm (1- to 4-leaf stage). Treated plants and controls were maintained in a controlled growth environment for 14 to 21 d after which time all species were compared to controls and visually evaluated. Plant response ratings, summarized in Table D, are based on a scale of 0 to 100 where 0 is no effect and 100 is complete control. A dash (-) response means no test result.

[6] = tested on: water seeded rice seedlings (Rice, W. S. Jap, Oryza sativa cv. ‘Japonica-M202’ or Rice, W. S. Ind, ‘Indica’); experiment: Test F flooded paddy test; details: Flood, after 21 d
Description: (§2) Three plastic pots (ca. 16-cm diameter) per rate were partially filled with sterilized Tama silt loam soil comprising a 35:50:15 ratio of sand, silt and clay and 2.6% organic matter. Separate plantings for each of the three pots were as follows. Seeds from the U.S. of monochoria (Monochoria vaginalis), sedge, umbrella (small-flower umbrella sedge, Cyperus difformis) and redstem (purple redstem, Ammannia coccinea), were planted into one 16-cm pot for each rate. Seeds from the U.S. of rice flatsedge (Cyperus iria), sprangletop, Brdd. (bearded sprangletop, Leptochloa fascicularis), one stand of 9 or 10 water seeded rice seedlings (Rice, W. S. Jap, Oryza sativa cv. ‘Japonica-M202’ or Rice, W. S. Ind, ‘Indica’), and two stands of 3 or 4 transplanted rice seedlings (Oryza sativa cv. ‘Japonica-M202’) were planted into one 16-cm pot for each rate. Seeds from the U.S. of barnyardgrass (Echinochloa crus-galli), and late watergrass (Echinochloa oryzicola) were planted into one 16-cm pot for each rate.
(§3) Plantings were sequential so that crop and weed species were at the 2.0 to 2.5-leaf stage at time of treatment.
(§4) Potted plants were grown in a greenhouse with day/night temperature settings of 30/27° C., and supplemental balanced lighting was provided to maintain a 16-hour photoperiod. Test pots were maintained in the greenhouse until test completion.
(§5) At time of treatment, test pots were flooded to 3 cm above the soil surface, treated by application of test compounds directly to the paddy water, and then maintained at that water depth for the duration of the test. Effects of treatments on rice and weeds were visually evaluated by comparison to untreated controls after 21 d. Plant response ratings, summarized in Table F, are based on a scale of 0 to 100 where 0 is no effect and 100 is complete control. A dash (-) response means no test result.

[7] = tested on: barnyardgrass (Echinochloa crus-galli); experiment: Test F flooded paddy test; details: Flood, after 21 d
Description: as §2, §3, §4, §5

[8] = tested on: late watergrass (Echinochloa oryzicola); experiment: Test F flooded paddy test; details: Flood, after 21 d
Description: as §2, §3, §4, §5

[9] = tested on: transplanted rice seedlings (Oryza sativa cv. ‘Japonica-M202’); experiment: Test F flooded paddy test; details: Flood, after 21 d
Description: as §2, §3, §4, §5

[10] = tested on: monochoria (Monochoria vaginalis); experiment: Test F flooded paddy test; details: Flood, after 21 d
Description: as §2, §3, §4, §5

[11] = Cpd. No. 20 alone 125 g a.i./ha
[12] = Cpd. No. 20 alone 250 g a.i./ha
[13] = Cpd. No. 20 alone 375 g a.i./ha

For Cc1ccc2ccc(C)c(-c3c(O)c(Cl)nn(C)c3=O)c2c1 [Cpd. No. 20, 6-chloro-4-(2,7-dimethyl-1-naphthalenyl)-5-hydroxy-2-methyl-3(2H)-pyridazinone], the “Plant response rating (0 to 100 scale) GLXMA” value ([1]; Cpd. No. 20 alone 62 g a.i./ha) was 15, the “Plant response rating (0 to 100 scale) GLXMA” value [1, 11] was 22 and the “Plant response rating (0 to 100 scale) GLXMA” value [1, 12] was 30. For the same compound, the “Plant response rating (0 to 100 scale) GLXMA” value [1, 13] was 35, the “Plant response rating (0 to 100 scale) HORVW” value ([2]; Cpd. No. 20 alone 62 g a.i./ha) was 0 and the “Plant response rating (0 to 100 scale) HORVW” value [2, 11] was 10. For the same compound, the “Plant response rating (0 to 100 scale) HORVW” value [2, 12] was 15, the “Plant response rating (0 to 100 scale) HORVW” value [2, 13] was 20 and the “Plant response rating (0 to 100 scale) SETFA” value ([3]; Cpd. No. 20 alone 62 g a.i./ha) was 96. The “Plant response rating (0 to 100 scale) SETFA” value [3, 11] was 99, the “Plant response rating (0 to 100 scale) SETFA” value [3, 12] was 100 and the “Plant response rating (0 to 100 scale) SETFA” value [3, 13] was 100. The “Plant response rating (0 to 100 scale) TRZAW” value ([4]; Cpd. No. 20 alone 62 g a.i./ha) was 0, the “Plant response rating (0 to 100 scale) TRZAW” value [4, 11] was 8 and the “Plant response rating (0 to 100 scale) TRZAW” value [4, 12] was 22. For the same compound, the “Plant response rating (0 to 100 scale) TRZAW” value [4, 13] was 35, the “Plant response rating, Chamomile” value ([5]; 16 g ai/ha) was 95 and the “Plant response rating, Chamomile” value ([5]; 31 g ai/ha) was 98. The “Plant response rating, Chamomile” value ([5]; 62 g ai/ha) was 100, the “Plant response rating, Chamomile” value ([5]; 125 g ai/ha) was 100 and the “Plant response rating (0 to 100 scale)” value ([6]; 31 g ai/ha) was 0. For the same compound, the “Plant response rating (0 to 100 scale)” value ([6]; 62 g ai/ha) was 0, the “Plant response rating (0 to 100 scale)” value ([6]; 125 g ai/ha) was 5 and the “Plant response rating (0 to 100 scale)” value ([6]; 250 g ai/ha) was 23. For the same compound, the “Plant response rating (0 to 100 scale)” value ([7]; 31 g ai/ha) was 0, the “Plant response rating (0 to 100 scale)” value ([7]; 62 g ai/ha) was 0 and the “Plant response rating (0 to 100 scale)” value ([7]; 125 g ai/ha) was 43. For the same compound, the “Plant response rating (0 to 100 scale)” value ([7]; 250 g ai/ha) was 65, the “Plant response rating (0 to 100 scale)” value ([8]; 31 g ai/ha) was 0 and the “Plant response rating (0 to 100 scale)” value ([8]; 62 g ai/ha) was 35. For the same compound, the “Plant response rating (0 to 100 scale)” value ([8]; 125 g ai/ha) was 50, the “Plant response rating (0 to 100 scale)” value ([8]; 250 g ai/ha) was 73 and the “Plant response rating (0 to 100 scale)” value ([9]; 31 g ai/ha) was 0. The “Plant response rating (0 to 100 scale)” value ([9]; 62 g ai/ha) was 0, the “Plant response rating (0 to 100 scale)” value ([9]; 125 g ai/ha) was 0 and the “Plant response rating (0 to 100 scale)” value ([9]; 250 g ai/ha) was 0. The “Plant response rating (0 to 100 scale)” value ([10]; 31 g ai/ha) was 10, the “Plant response rating (0 to 100 scale)” value ([10]; 62 g ai/ha) was 90 and the “Plant response rating (0 to 100 scale)” value ([10]; 125 g ai/ha) was 95. The “Plant response rating (0 to 100 scale)” value ([10]; 250 g ai/ha) was 99.

In the case of Cc1cc(Cl)c2ccccc2c1-c1c(O)c(Cl)nn(C)c1=O [Cpd. No. 65], the “Plant response rating, Chamomile” value ([5]; 16 g ai/ha) is reported as 99, the “Plant response rating, Chamomile” value ([5]; 31 g ai/ha) is reported as 100 and the “Plant response rating, Chamomile” value ([5]; 62 g ai/ha) is reported as 100. The “Plant response rating, Chamomile” value ([5]; 125 g ai/ha) was 100, the “Plant response rating (0 to 100 scale)” value ([6]; 64 g ai/ha) was 0 and the “Plant response rating (0 to 100 scale)” value ([6]; 125 g ai/ha) was 0. For the same compound, the “Plant response rating (0 to 100 scale)” value ([7]; 64 g ai/ha) was 10, the “Plant response rating (0 to 100 scale)” value ([7]; 125 g ai/ha) was 60 and the “Plant response rating (0 to 100 scale)” value ([8]; 64 g ai/ha) was 20. The “Plant response rating (0 to 100 scale)” value ([8]; 125 g ai/ha) was 55, the “Plant response rating (0 to 100 scale)” value ([9]; 64 g ai/ha) was 0 and the “Plant response rating (0 to 100 scale)” value ([9]; 125 g ai/ha) was 15. The “Plant response rating (0 to 100 scale)” value ([10]; 64 g ai/ha) was 100 and the “Plant response rating (0 to 100 scale)” value ([10]; 125 g ai/ha) was 100.

Reference: patent US12435044B2, “Pyridazinone herbicides and pyridazinone intermediates used to prepare a herbicide” (FMC Corporation, priority 2018, dated 2025)
